Data: article PMC5382172 (Frontiers in Molecular Neuroscience, 2017)
“And” between values parts separate entries of the source, which are not always exact repeats. Identical values can stand only once.

Experiments:
[1] = molecular target: T1, GluClαP192E/βWT receptor (Caenorhabditis elegans, UniProt G5EBR3+Q17328, P192E); assay: Whole-cell patch clamp in CHO cells, GluClαP192E/βWT receptor; format: cell-based; settings: 500 nM IVM, -60 mV
T1 construct: entry codes of the full-length subunits used in this study; expressed in transfected cells; host or cells: CHO cells, transient co-transfection 1:1, pcDNA3.1
T1 sequence (Q17328 23-434): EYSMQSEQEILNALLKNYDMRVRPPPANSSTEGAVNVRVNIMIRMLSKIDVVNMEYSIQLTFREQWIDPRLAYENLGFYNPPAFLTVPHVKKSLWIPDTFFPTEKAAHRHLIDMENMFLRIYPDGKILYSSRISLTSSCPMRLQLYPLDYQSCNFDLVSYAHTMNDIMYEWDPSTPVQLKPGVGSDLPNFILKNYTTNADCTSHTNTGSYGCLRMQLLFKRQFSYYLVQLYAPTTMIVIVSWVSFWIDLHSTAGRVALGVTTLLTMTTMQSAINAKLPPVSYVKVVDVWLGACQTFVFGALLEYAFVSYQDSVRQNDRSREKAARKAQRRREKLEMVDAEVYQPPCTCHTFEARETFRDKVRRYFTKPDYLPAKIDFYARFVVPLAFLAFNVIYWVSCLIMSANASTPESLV
T1 sequence (G5EBR3 21-461 P192E): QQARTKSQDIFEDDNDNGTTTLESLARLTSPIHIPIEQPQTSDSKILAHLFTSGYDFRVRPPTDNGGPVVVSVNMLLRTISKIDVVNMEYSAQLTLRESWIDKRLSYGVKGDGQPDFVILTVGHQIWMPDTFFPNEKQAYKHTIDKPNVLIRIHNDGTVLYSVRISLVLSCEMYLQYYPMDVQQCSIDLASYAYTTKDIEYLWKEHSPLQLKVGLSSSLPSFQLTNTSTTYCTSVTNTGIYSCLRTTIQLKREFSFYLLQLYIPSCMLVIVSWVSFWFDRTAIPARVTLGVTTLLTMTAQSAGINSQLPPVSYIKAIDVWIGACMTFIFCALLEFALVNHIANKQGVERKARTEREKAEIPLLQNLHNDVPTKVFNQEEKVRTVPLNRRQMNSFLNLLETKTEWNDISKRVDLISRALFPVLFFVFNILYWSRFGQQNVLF
Procedure: (§1) Chinese hamster ovary (CHO) cells were cultured as previously (Bar-Lev et al., [2011]) in Dulbecco’s Modified Eagle Medium (DMEM) containing 10% fetal calf serum, 2 mM glutamax, 100 Units/ml penicillin G and 100 μg/ml streptomycin, and grown in 5% CO2 at 37°C under 90%–95% humidity. The cells were seeded on glass coverslips (13-mm diameter) placed in a 24-multiwell plate. […] For the expression of GluCl receptors, cells were transiently co-transfected with pcDNA3.1 plasmids containing the ORFs of interest using transit-LT1 transfection reagent (Mirus, Madison, WI, USA), according to the manufacturer’s protocol. The cDNAs encoding the C. elegans GluClα (GLC-1) or its mutated versions and the GluClβ (GLC-2) subunits (200–600 ng per well) were used at 1:1 ratio. The pIRES-CD8 plasmid (200 ng per well) was added to enable the visualization of the expressing cells by beads coated with anti-CD8 antibodies (Invitrogen). […]
(§2) Whole-cell patch clamp recordings were performed as described previously (Bar-Lev et al., [2011]) in CHO cells that were prepared as detailed above. […] The currents were measured with an Axopatch 200B patch-clamp amplifier (Molecular Devices, Sunnyvale, CA, USA) and a Digidata 1440A interface (Molecular Devices). […]

[2] = molecular target: T2, GluClαP192M/βWT receptor (Caenorhabditis elegans, UniProt G5EBR3+Q17328, P192M); assay: Whole-cell patch clamp in CHO cells, GluClαP192M/βWT receptor; format: cell-based; settings: 500 nM IVM, -60 mV
T2 construct: entry codes of the full-length subunits used in this study; expressed in transfected cells; host or cells: CHO cells, transient co-transfection 1:1, pcDNA3.1
T2 sequence (Q17328 23-434): as the sequence (Q17328 23-434) above
T2 sequence (G5EBR3 21-461 P192M): as the sequence (G5EBR3 21-461 P192E) above, with E172M counted along it
Procedure: as §1, §2

[3] = molecular target: T3, GluClαY194R/βWT receptor (Caenorhabditis elegans, UniProt G5EBR3+Q17328, Y194R); assay: Whole-cell patch clamp in CHO cells, GluClαY194R/βWT receptor; format: cell-based; settings: 500 nM IVM, -60 mV
T3 construct: entry codes of the full-length subunits used in this study; expressed in transfected cells; host or cells: CHO cells, transient co-transfection 1:1, pcDNA3.1
T3 sequence (G5EBR3 21-461 Y194R): as the sequence (G5EBR3 21-461 P192E) above, with E172P, Y174R counted along it
T3 sequence (Q17328 23-434): as the sequence (Q17328 23-434) above
Procedure: as §1, §2

[4] = molecular target: T4, GluClαE273R/βWT receptor (Caenorhabditis elegans, UniProt G5EBR3+Q17328, E273R); assay: Whole-cell patch clamp in CHO cells, GluClαE273R/βWT receptor; format: cell-based; settings: 500 nM IVM, -60 mV
T4 construct: entry codes of the full-length subunits used in this study; expressed in transfected cells; host or cells: CHO cells, transient co-transfection 1:1, pcDNA3.1
T4 sequence (G5EBR3 21-461 E273R): as the sequence (G5EBR3 21-461 P192E) above, with E172P, E253R counted along it
T4 sequence (Q17328 23-434): as the sequence (Q17328 23-434) above
Procedure: as §1, §2

[5] = molecular target: T5, GluClαF276A/βWT receptor (Caenorhabditis elegans, UniProt G5EBR3+Q17328, F276A); assay: Whole-cell patch clamp in CHO cells, GluClαF276A/βWT receptor; format: cell-based
T5 construct: entry codes of the full-length subunits used in this study; expressed in transfected cells; host or cells: CHO cells, transient co-transfection, pcDNA3.1 (X-tremeGENE HP for the IVM-EC50 experiments)
T5 sequence (G5EBR3 21-461 F276A): as the sequence (G5EBR3 21-461 P192E) above, with E172P, F256A counted along it
T5 sequence (Q17328 23-434): as the sequence (Q17328 23-434) above
Procedure: Chinese hamster ovary (CHO) cells were cultured as previously (Bar-Lev et al., [2011]) in Dulbecco’s Modified Eagle Medium (DMEM) containing 10% fetal calf serum, 2 mM glutamax, 100 Units/ml penicillin G and 100 μg/ml streptomycin, and grown in 5% CO2 at 37°C under 90%–95% humidity. The cells were seeded on glass coverslips (13-mm diameter) placed in a 24-multiwell plate. […] For the expression of GluCl receptors, cells were transiently co-transfected with pcDNA3.1 plasmids containing the ORFs of interest using transit-LT1 transfection reagent (Mirus, Madison, WI, USA), according to the manufacturer’s protocol. The cDNAs encoding the C. elegans GluClα (GLC-1) or its mutated versions and the GluClβ (GLC-2) subunits (200–600 ng per well) were used at 1:1 ratio. The pIRES-CD8 plasmid (200 ng per well) was added to enable the visualization of the expressing cells by beads coated with anti-CD8 antibodies (Invitrogen). For high-level expression of the GluClαF276A/βWT mutant receptor in experiments assigned to determine its IVM-EC50, we used the X-tremeGENE HP DNA Transfection Reagent (Roche Life Science). Recordings were performed 72–96 h following the transfection.
Whole-cell patch clamp recordings were performed as described previously (Bar-Lev et al., [2011]) in CHO cells that were prepared as detailed above. The normal external solution (NES) contained (in millimolar): 140 NaCl, 2.8 KCl, 2 CaCl2, 2 MgCl2, 10 glucose and 10 HEPES, adjusted to pH 7.35 with NaOH (310 mOsm/L). The pipette solution contained (in millimolar): 130 KCl, 4 MgCl2, 4 Na2ATP, 1 EGTA and 10 HEPES, adjusted to pH 7.35 with KOH (290 mOsm/L). The osmolarity of these solutions was maintained by adding sucrose. The electrode resistance was 6–10 MΩ when filled with the pipette solution. External solutions were applied onto the cell by using the VC-77SP fast-step system (Warner Instruments, Hamden, CT, USA) combined with N2 pressure of 3–4 psi to produce laminar flow of the external solution onto the patched cell. All measurements were performed at room temperature. The currents were measured with an Axopatch 200B patch-clamp amplifier (Molecular Devices, Sunnyvale, CA, USA) and a Digidata 1440A interface (Molecular Devices). Acquisition of recording data was performed at 2.5 kHz and recordings were low-pass filtered at 1 kHz, through a four-pole Bessel filter. The pClamp 10 software (Molecular Devices) was used for data acquisition. […] Five-hundred milliseconds after the application started (which is also after the current reached to its peak at −60 mV), the voltage was stepped from −60 mV to −80 mV for 50 ms followed by a 250-ms-long voltage ramp ranging from −80 mV to +80 mV.
Dose-response curves were fitted to the data points by a nonlinear regression using the Hill Equation 1,

[6] = molecular target: T6, GluClαWT (GLC-1) homomeric receptor (Caenorhabditis elegans, UniProt G5EBR3); set-up: method as in Degani-Katzav et al., [2016]; settings: CHO cells, αWT alone; ref Degani-Katzav et al., [2016]; cited from earlier work
T6 construct: entry codes of the full-length subunits used in this study; expressed in transfected cells; host or cells: CHO cells, transient transfection, pcDNA3.1
T6 sequence (G5EBR3 21-461): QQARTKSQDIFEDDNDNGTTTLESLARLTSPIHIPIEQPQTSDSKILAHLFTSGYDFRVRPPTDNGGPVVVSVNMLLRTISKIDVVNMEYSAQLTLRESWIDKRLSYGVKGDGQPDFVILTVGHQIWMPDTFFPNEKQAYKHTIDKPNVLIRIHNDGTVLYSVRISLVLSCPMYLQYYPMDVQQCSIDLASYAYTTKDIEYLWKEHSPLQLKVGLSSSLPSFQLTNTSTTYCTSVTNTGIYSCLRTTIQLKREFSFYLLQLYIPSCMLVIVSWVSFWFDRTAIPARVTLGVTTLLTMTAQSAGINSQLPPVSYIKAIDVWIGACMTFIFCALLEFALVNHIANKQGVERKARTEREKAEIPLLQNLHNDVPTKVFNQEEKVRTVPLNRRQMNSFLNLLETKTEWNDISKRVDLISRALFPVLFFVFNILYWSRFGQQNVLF

For `CC[C@H](C)[C@H]1O[C@]2(CC[C@@H]1C)C[C@@H]1C[C@@H](C/C=C(\C)[C@@H](O[C@H]3C[C@H](OC)[C@@H](O[C@H]4C[C@H](OC)[C@@H](O)[C@H](C)O4)[C@H](C)O3)[C@@H](C)/C=C/C=C3\CO[C@@H]4[C@H](O)C(C)=C[C@@H](C(=O)O1)[C@]34O)O2` [IVM, ivermectin], the “IVM (500 nM) Amplitude” value [1] was 1.7 ± 0.3 nA, the “IVM (500 nM) Amplitude” value [2] was 1.4 ± 0.2 nA and the “IVM (500 nM) Amplitude” value [3] was 2.1 ± 0.5 nA. For the same compound, the “IVM (500 nM) Amplitude” value [4] was 1.0 ± 0.2 nA, the “increase in IVM-EC50 relative to GluClαWT/βWT” value [5] was 20 fold and the “Fold decrease in Glu-EC50 observed after pre-exposure to IVM” value ([5]; 50 nM IVM) was ~ 8.5 fold. For the same compound, the “magnitude of the IVM-elicited current” value ([5]; 50 nM IVM, -60 mV, just before the second application of Glu) was 70 pA, the “decrease of IVM/Glu response ratio compared to GluClαWT/βWT” value ([5]; 500 nM IVM (-60 mV) over Glu-EC50 concentration (+60 mV) peak currents) was ~ 7 fold and the “fold-potentiation of Glu-elicited response by IVM” value ([5]; 1 mM Glu before and after exposure to 50 nM IVM) was ~ 18 fold and 17.9 ± 1.8 fold. For the same compound, the “IVM (500 nM) Amplitude” value ([5]; CHO cells, 500 nM IVM, -60 mV) was 0.2 ± 0.03 nA, the “Hill coefficient of activation by IVM” value ([5]; cumulative IVM concentrations, -60 mV) was 3.5 and 3.5 ± 0.40 and the EC50 ([5]; cumulative IVM concentrations, -60 mV, high-level expression (X-tremeGENE HP)) was 802 nM. The “response to 500 nM IVM” value [6] was “robust responses”.
